{
  "source": "ChEMBL document CHEMBL3608227",
  "about": "“Synthesis and anti-tubercular activity of 2-nitroimidazooxazines with modification at the C-7 position as PA-824 analogs” (Bioorg Med Chem Lett, 2015)",
  "data": [
    {"test_system": "Mycobacterium tuberculosis", "experiment": "Potency index, ratio of IC50 for PA-824 to IC50 for test compound against Mycobacterium tuberculosis H37Rv", "format": "functional", "values": [
      {"smiles": "O=[N+]([O-])c1cn2c(n1)O[C@@H](CCOCc1ccc(OC(F)(F)F)cc1)CC2", "Ratio IC50": 5},
      {"smiles": "O=[N+]([O-])c1cn2c(n1)O[C@@H](CCOCc1ccc(-c3ccccc3)cc1)CC2", "Ratio IC50": 2}
    ]},
    {"test_system": "Mycobacterium tuberculosis", "experiment": "Anti-tubercular activity against Mycobacterium tuberculosis", "format": "functional, organism-based", "units": {"IC50": "nM"}, "values": [
      {"smiles": "O=[N+]([O-])c1cn2c(n1)OC[C@H](OCc1ccc(OC(F)(F)F)cc1)C2", "IC50": 160},
      {"smiles": "O=[N+]([O-])c1cn2c(n1)OC[C@@H](OCc1ccc(OC(F)(F)F)cc1)C2", "note": "[PRETOMANID]", "IC50": 900}
    ]},
    {"test_system": "Mycobacterium tuberculosis", "experiment": "Potency index, ratio of IC50 for PA-824 to IC50 for test compound against Mycobacterium tuberculosis", "format": "functional", "values": [
      {"smiles": "O=[N+]([O-])c1cn2c(n1)OC[C@H](OCc1ccc(OC(F)(F)F)cc1)C2", "Ratio IC50": 6}
    ]},
    {"test_system": "Mycobacterium tuberculosis", "experiment": "Anti-tubercular activity against Mycobacterium tuberculosis H37Rv incubated at 37 degC by microscopy", "format": "functional", "units": {"MIC99": "µM"}, "values": [
      {"smiles": "O=[N+]([O-])c1cn2c(n1)O[C@@H](CCOCc1ccc(OC(F)(F)F)cc1)CC2", "MIC99": 0.078},
      {"smiles": "O=[N+]([O-])c1cn2c(n1)O[C@H](CCOCc1ccc(OC(F)(F)F)cc1)CC2", "MIC99": 0.39},
      {"smiles": "CC(C)(C)c1ccc(COCC[C@H]2CCn3cc([N+](=O)[O-])nc3O2)cc1", "MIC99": 0.39},
      {"smiles": "O=[N+]([O-])c1cn2c(n1)O[C@@H](CCOCc1ccc(Br)cc1)CC2", "MIC99": 0.39},
      {"smiles": "O=[N+]([O-])c1cn2c(n1)O[C@@H](CCOCc1ccc(Cl)cc1)CC2", "MIC99": 0.39},
      {"smiles": "O=[N+]([O-])c1cn2c(n1)O[C@@H](CCOCc1ccc(C(F)(F)F)cc1)CC2", "MIC99": 0.195},
      {"smiles": "O=[N+]([O-])c1cn2c(n1)O[C@@H](CCOCc1ccc(-c3ccccc3)cc1)CC2", "MIC99": 0.195},
      {"smiles": "O=[N+]([O-])c1cn2c(n1)O[C@@H](CCOc1ccc(OC(F)(F)F)cc1)CC2", "MIC99": 0.098},
      {"smiles": "O=[N+]([O-])c1cn2c(n1)O[C@@H](CCOc1ccccc1)CC2", "MIC99": 3.12},
      {"smiles": "O=[N+]([O-])c1cn2c(n1)O[C@@H](CCOc1ccc(Cl)cc1)CC2", "MIC99": 0.39},
      {"smiles": "O=[N+]([O-])c1cn2c(n1)O[C@@H](CCOc1ccc(C(F)(F)F)cc1)CC2", "MIC99": 0.195},
      {"smiles": "O=[N+]([O-])c1cn2c(n1)O[C@@H](CCOc1ccc(OCc3ccccc3)cc1)CC2", "MIC99": 0.078},
      {"smiles": "O=[N+]([O-])c1cn2c(n1)O[C@H](CCOc1ccc(OCc3ccccc3)cc1)CC2", "MIC99": 0.078},
      {"smiles": "O=[N+]([O-])c1cn2c(n1)O[C@@H](CCOc1ccc(-c3ccccc3)cc1)CC2", "MIC99": 0.078},
      {"smiles": "O=[N+]([O-])c1cn2c(n1)O[C@@H](CCOc1ccc(-c3ccc(F)cc3)cc1)CC2", "MIC99": 0.05},
      {"smiles": "O=C(OCC[C@H]1CCn2cc([N+](=O)[O-])nc2O1)OCc1ccc(OC(F)(F)F)cc1", "MIC99": 0.078},
      {"smiles": "O=C(OCC[C@@H]1CCn2cc([N+](=O)[O-])nc2O1)OCc1ccc(OC(F)(F)F)cc1", "MIC99": 1.56},
      {"smiles": "O=C(OCC[C@H]1CCn2cc([N+](=O)[O-])nc2O1)OCc1cccc(OC(F)(F)F)c1", "MIC99": 0.78},
      {"smiles": "O=C(OCC[C@H]1CCn2cc([N+](=O)[O-])nc2O1)OCc1ccccc1OC(F)(F)F", "MIC99": 0.39},
      {"smiles": "O=C(OCC[C@H]1CCn2cc([N+](=O)[O-])nc2O1)OCc1ccc(Cl)cc1", "MIC99": 0.195},
      {"smiles": "O=C(OCC[C@H]1CCn2cc([N+](=O)[O-])nc2O1)OCc1ccc(C(F)(F)F)cc1", "MIC99": 0.39},
      {"smiles": "O=C(Nc1ccc(Cl)cc1)OCC[C@H]1CCn2cc([N+](=O)[O-])nc2O1", "MIC99": 0.195},
      {"smiles": "O=C(Nc1ccc(-c2ccc(OC(F)(F)F)cc2)cc1)OCC[C@H]1CCn2cc([N+](=O)[O-])nc2O1", "MIC99": 0.195},
      {"smiles": "O=[N+]([O-])c1cn2c(n1)OC[C@@H](OCc1ccc(OC(F)(F)F)cc1)C2", "note": "[PRETOMANID]", "MIC99": 0.39}
    ]}
  ]
}
